What was measured:
HCT116 xenograft = test: HCT116 tumour xenograft growth inhibition; assay type: in vivo, nude mice; details: for % Inhibition of tumour growth: vs vehicle
Description: (§1) Tumours were initiated by injection of tumour cell suspension subcutaneously in 8–12-week-old nude mice, except PC3 tumours that were grown in SCID mice (Charles River Laboratories, Wilmington, MA, USA). When tumours reached a volume of 100–200 mm^3, mice were randomised into groups of eight prior to treatment with VEGFR kinase inhibitors. Animals were treated with kinase inhibitors (10, 30, or 100 mg kg^−1) or vehicle (0.5% hydroxypropyl methyl cellulose, 0.1% Tween 80 in sterile water), administered once or twice daily by oral gavage for 2–3 weeks (till the mean tumour volume reached 1000–1500 mm^3). Tumour volume was measured twice weekly by calipers, using the formula (length × width × width × 0.5), where length was the longest diameter across the tumour, and width was the corresponding perpendicular. Tumour growth inhibition was calculated by change in the slopes of tumour growth for control and treated tumours. The oral dose of GW654652 producing 50% inhibition of tumour growth (ED50, mg kg^−1) was estimated by a programme that performed a weighted nonlinear regression analysis of data using the equation: y=Vmax(1−(x/(K+x))), where K is equal to ED50. All animal studies were carried out with the appropriate institutional ethical committee approval and they met the standards of both the US federal regulations and those required by the UKCCCR guidelines ([Workman et al, 1998]).

EGFR = target: T1, EGFR (Homo sapiens, UniProt P00533); test: EGFR kinase assay (scintillation proximity); assay type: biochemical
T1 construct: Each kinase assay was conducted using purified recombinant catalytic domain of the enzyme
T1 sequence (P00533 712-979 limits assumed, species assumed): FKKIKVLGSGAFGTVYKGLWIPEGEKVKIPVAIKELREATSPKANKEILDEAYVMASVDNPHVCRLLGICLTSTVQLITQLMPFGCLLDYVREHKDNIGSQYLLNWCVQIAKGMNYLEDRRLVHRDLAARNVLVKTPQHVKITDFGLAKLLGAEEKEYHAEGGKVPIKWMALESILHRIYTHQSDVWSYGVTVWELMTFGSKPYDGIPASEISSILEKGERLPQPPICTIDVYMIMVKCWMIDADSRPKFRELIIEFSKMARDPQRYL
Description: (§2) Inhibition of several other kinases by small molecules was also determined. Each kinase assay was conducted using purified recombinant catalytic domain of the enzyme. The concentration of ATP and kinase-specific biotinylated peptide in each assay was below the apparent Km of the respective substrate. Inhibition of c-Fms, SRC, and Tie-2 was evaluated by an HTRF format and the inhibition of CDK2, CDK4, EGFR, ErbB2, and Eph-B4 was detected by scintillation proximity assay.

[1] = system: HUVEC grown in presence of VEGF; test: VEGF-induced HUVEC proliferation (BrdU incorporation); assay type: cell-based; details: Homo sapiens, VEGF 10 ng ml^−1, 72 h
Description: (§3) Effect of kinase inhibitors on cell proliferation was measured using BrdU incorporation method using commercially available kits (Roche Diagnostics, Indianapolis, IN, USA). Briefly, HUVEC were seeded in a medium containing 5% FBS in type 1 Collagen-coated 96-well plates and incubated overnight at 37°C, 5% CO2. The medium was aspirated from the cells, and various concentrations of kinase inhibitors in serum-free medium were added to each well. After 30 min, VEGF (10 ng ml^−1) or bFGF (0.3 ng ml^−1) was added to the wells. Cells were incubated for an additional 72 h and BrdU (10 μM) was added during the last 18–24 h of incubation. Data were fitted with a curve described by the equation, y=Vmax × (1−(x/(K+x))), where K is equal to the IC50.

HT29 xenograft = test: HT29 tumour xenograft growth inhibition; assay type: in vivo, nude mice; details: for % Inhibition of tumour growth: vs vehicle
Description: as §1

SW620 xenograft = test: SW620 tumour xenograft growth inhibition; assay type: in vivo, nude mice; details: for % Inhibition of tumour growth: vs vehicle
Description: as §1

PC3 xenograft = test: PC3 tumour xenograft growth inhibition; assay type: in vivo, SCID mice; details: for % Inhibition of tumour growth: vs vehicle
Description: as §1

CDK4 = target: T2, CDK4 (Homo sapiens, UniProt P11802); test: CDK4 kinase assay (scintillation proximity); assay type: biochemical
T2 construct: Each kinase assay was conducted using purified recombinant catalytic domain of the enzyme
T2 sequence (P11802 6-295 limits assumed, species assumed): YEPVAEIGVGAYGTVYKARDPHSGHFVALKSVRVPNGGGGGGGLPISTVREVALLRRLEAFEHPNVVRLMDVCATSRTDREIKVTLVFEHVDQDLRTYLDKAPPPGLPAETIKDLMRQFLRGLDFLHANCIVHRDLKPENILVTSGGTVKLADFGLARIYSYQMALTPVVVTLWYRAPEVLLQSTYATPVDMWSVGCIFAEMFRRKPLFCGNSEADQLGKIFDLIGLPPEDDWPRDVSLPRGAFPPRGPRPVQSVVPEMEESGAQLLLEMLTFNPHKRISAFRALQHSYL
T2 sequence (P24385 whole entry partner, species assumed, the tested form may be a part): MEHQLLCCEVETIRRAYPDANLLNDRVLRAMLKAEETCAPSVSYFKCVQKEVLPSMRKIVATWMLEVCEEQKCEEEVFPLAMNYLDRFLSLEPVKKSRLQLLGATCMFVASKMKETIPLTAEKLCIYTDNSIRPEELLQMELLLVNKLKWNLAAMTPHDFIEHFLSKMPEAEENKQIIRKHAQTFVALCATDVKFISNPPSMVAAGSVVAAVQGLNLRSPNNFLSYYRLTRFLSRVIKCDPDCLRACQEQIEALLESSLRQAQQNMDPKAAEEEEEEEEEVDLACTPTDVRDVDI
Description: as §2

c-Fms = target: T3, c-Fms (Homo sapiens, UniProt P07333); test: c-Fms kinase assay (HTRF); assay type: biochemical
T3 construct: Each kinase assay was conducted using purified recombinant catalytic domain of the enzyme
T3 sequence (P07333 582-910 limits assumed): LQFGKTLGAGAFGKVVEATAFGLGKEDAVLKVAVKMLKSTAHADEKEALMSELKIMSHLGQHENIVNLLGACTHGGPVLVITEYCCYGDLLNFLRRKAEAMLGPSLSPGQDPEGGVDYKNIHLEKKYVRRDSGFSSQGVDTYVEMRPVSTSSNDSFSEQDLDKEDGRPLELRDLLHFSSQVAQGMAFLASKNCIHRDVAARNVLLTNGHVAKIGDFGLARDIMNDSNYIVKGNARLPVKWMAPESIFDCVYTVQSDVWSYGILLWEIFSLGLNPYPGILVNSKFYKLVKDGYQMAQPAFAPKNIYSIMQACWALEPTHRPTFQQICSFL
Description: as §2

[2] = system: HUVEC grown in presence of bFGF; test: bFGF-induced HUVEC proliferation (BrdU incorporation); assay type: cell-based; details: Homo sapiens, bFGF 0.3 ng ml^−1, 72 h
Description: as §3

Tie2 = target: T4, Tie2 (Homo sapiens, UniProt Q02763); test: Tie-2 kinase assay (HTRF); assay type: biochemical
T4 construct: Each kinase assay was conducted using purified recombinant catalytic domain of the enzyme
T4 sequence (Q02763 824-1096 limits assumed, species assumed): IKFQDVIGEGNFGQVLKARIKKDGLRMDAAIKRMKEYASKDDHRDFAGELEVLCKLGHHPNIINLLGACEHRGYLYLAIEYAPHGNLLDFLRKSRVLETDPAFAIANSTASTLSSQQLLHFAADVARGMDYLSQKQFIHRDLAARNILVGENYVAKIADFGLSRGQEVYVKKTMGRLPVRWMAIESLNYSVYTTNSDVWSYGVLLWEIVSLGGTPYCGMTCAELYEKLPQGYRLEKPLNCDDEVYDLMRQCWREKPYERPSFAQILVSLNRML
Description: as §2

[3] = ratio of IC50 of the kinase to IC50 vs VEGFR-2

CCS(=O)(=O)c1ccc(OC)c(Nc2nccc(N(C)c3ccc4c(C)n[nH]c4c3)n2)c1 [GW654652, N^2-[5-(ethylsulphonyl)-2-methoxyphenyl]-N^4-methyl-N^4-(3-methyl-1H-indazol-6-yl)pyrimidine-2,4-diamine]
% Inhibition of tumour growth (HCT116 xenograft; HCT116, 10 mg kg^−1 oral once daily): 18%
% Inhibition of tumour growth (HCT116 xenograft; HCT116, 30 mg kg^−1 oral once daily): 59%
% Inhibition of tumour growth (HCT116 xenograft; HCT116, 100 mg kg^−1 oral once daily): 71%
ED50 (HCT116 xenograft; HCT116, oral dose producing 50% inhibition of tumour growth): 21 ± 8 mg/kg/day
IC50 (EGFR; mean±s.e.): 1360 ± 420 nM
Fold selectivity vs VEGFR-2, EGFR (EGFR; [3]): 605
IC50 [1]: 110 nM
% Inhibition of tumour growth (HT29 xenograft; HT29, 10 mg kg^−1 oral once daily): 5%
% Inhibition of tumour growth (HT29 xenograft; HT29, 30 mg kg^−1 oral once daily): 69%
% Inhibition of tumour growth (HT29 xenograft; HT29, 100 mg kg^−1 oral once daily): 98%
ED50 (HT29 xenograft; HT29, oral dose producing 50% inhibition of tumour growth): 20 ± 8 mg/kg/day
% Inhibition of tumour growth (SW620 xenograft; SW620, 10 mg kg^−1 oral once daily): 12%
% Inhibition of tumour growth (SW620 xenograft; SW620, 30 mg kg^−1 oral once daily): 44%
% Inhibition of tumour growth (SW620 xenograft; SW620, 100 mg kg^−1 oral once daily): 74%
ED50 (SW620 xenograft; SW620, oral dose producing 50% inhibition of tumour growth): 46 ± 11 mg/kg/day
% Inhibition of tumour growth (PC3 xenograft; PC3, 30 mg kg^−1 oral once daily): 21%
% Inhibition of tumour growth (PC3 xenograft; PC3, 100 mg kg^−1 oral once daily): 48%
ED50 (PC3 xenograft; PC3, oral dose producing 50% inhibition of tumour growth): 108 ± 50 mg/kg/day
IC50 (CDK4): > 20000 nM
Fold selectivity vs VEGFR-2, CDK4 (CDK4; [3]): >8800
IC50 (c-Fms; mean±s.e.): 530 ± 330 nM
Fold selectivity vs VEGFR-2, c-Fms (c-Fms; [3]): 237
IC50 [2]: 1980 nM
IC50 (Tie2; mean±s.e.): 320 ± 40 nM
Fold selectivity vs VEGFR-2, Tie2 (Tie2; [3]): 144

From publication PMC2409895, “Antitumour efficacy of VEGFR2 tyrosine kinase inhibitor correlates with expression of VEGF and its receptor VEGFR2 in tumour models” (British Journal of Cancer, 2004)
